Results: PubChem BioAssay (NCI)
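1) Cells in 96-well plates. 2) Compound, 48 h, 5 concentrations. 3) Linear interpolation between surrounding doses. 4) Unreached endpoint = highest concentration. Here, GI50 denotes the concentration required for 50% inhibition of growth. TGI is the concentration that stops growth completely.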

Experiments:
Assay in all cases: NCI anticancer screen, dose series, 48 h
786-0 renal = tested on: 786-0 renal
A498 renal = tested on: A498 renal
A549 NSCLC = tested on: A549 NSCLC
ACHN renal = tested on: ACHN renal
BT-549 breast = tested on: BT-549 breast
CAKI-1 renal = tested on: CAKI-1 renal
CCRF-CEM leukemia = tested on: CCRF-CEM leukemia
COLO 205 colon = tested on: COLO 205 colon
DU-145 prostate = tested on: DU-145 prostate
EKVX NSCLC = tested on: EKVX NSCLC
HCC-2998 colon = tested on: HCC-2998 colon
HCT-116 colon = tested on: HCT-116 colon
HCT-15 colon = tested on: HCT-15 colon
HL-60(TB) leukemia = tested on: HL-60(TB) leukemia
HOP-62 NSCLC = tested on: HOP-62 NSCLC
HOP-92 NSCLC = tested on: HOP-92 NSCLC
HS 578T breast = tested on: HS 578T breast
HT29 colon = tested on: HT29 colon
IGROV1 ovarian = tested on: IGROV1 ovarian
K-562 leukemia = tested on: K-562 leukemia
KM12 colon = tested on: KM12 colon
LOX IMVI melanoma = tested on: LOX IMVI melanoma
M14 melanoma = tested on: M14 melanoma
MALME-3M melanoma = tested on: MALME-3M melanoma
MCF7 breast = tested on: MCF7 breast
MDA-MB-231 breast = tested on: MDA-MB-231 breast
MDA-MB-435 = tested on: MDA-MB-435
MDA-MB-468 breast = tested on: MDA-MB-468 breast
MOLT-4 leukemia = tested on: MOLT-4 leukemia
NCI-H226 lung = tested on: NCI-H226 lung
NCI-H23 lung = tested on: NCI-H23 lung
NCI-H460 lung = tested on: NCI-H460 lung
NCI-H522 lung = tested on: NCI-H522 lung
OVCAR-3 ovarian = tested on: OVCAR-3 ovarian
OVCAR-4 ovarian = tested on: OVCAR-4 ovarian
OVCAR-5 ovarian = tested on: OVCAR-5 ovarian
OVCAR-8 ovarian = tested on: OVCAR-8 ovarian
PC-3 prostate = tested on: PC-3 prostate
RPMI-8226 leukemia = tested on: RPMI-8226 leukemia
RXF 393 renal = tested on: RXF 393 renal
SF-268 CNS = tested on: SF-268 CNS
SF-295 CNS = tested on: SF-295 CNS
SF-539 CNS = tested on: SF-539 CNS
SK-MEL-2 melanoma = tested on: SK-MEL-2 melanoma
SK-MEL-28 melanoma = tested on: SK-MEL-28 melanoma
SK-MEL-5 melanoma = tested on: SK-MEL-5 melanoma
SK-OV-3 ovarian = tested on: SK-OV-3 ovarian
SN12C renal = tested on: SN12C renal
SNB-19 CNS = tested on: SNB-19 CNS
SNB-75 CNS = tested on: SNB-75 CNS
SR leukemia = tested on: SR leukemia
SW-620 colon = tested on: SW-620 colon
T-47D breast = tested on: T-47D breast
TK-10 renal = tested on: TK-10 renal
U251 CNS = tested on: U251 CNS
UACC-257 melanoma = tested on: UACC-257 melanoma
UACC-62 melanoma = tested on: UACC-62 melanoma
UO-31 renal = tested on: UO-31 renal

With `O=C1Nc2cc(Cl)ccc2/C1=C/c1cccc(OCc2ccccc2)c1` the GI50 (786-0 renal) was 3.12 µM, the TGI (786-0 renal) was 15.9 µM and the GI50 (A498 renal) was 13.7 µM. The TGI (A498 renal) was 27.9 µM, the GI50 (A549 NSCLC) was 10 µM and the TGI (A549 NSCLC) was 24.9 µM. The GI50 (ACHN renal) was 3.97 µM, the TGI (ACHN renal) was 16.1 µM and the GI50 (BT-549 breast) was 2.44 µM. For the same compound, the TGI (BT-549 breast) was 11.2 µM, the GI50 (CAKI-1 renal) was 2.77 µM and the TGI (CAKI-1 renal) was 16.4 µM. It also gave a GI50 (CCRF-CEM leukemia) of 2.86 µM, a TGI (CCRF-CEM leukemia) of 13.1 µM and a GI50 (COLO 205 colon) of 13.8 µM. It also gave a TGI (COLO 205 colon) of 30.2 µM, a GI50 (DU-145 prostate) of 10.9 µM and a TGI (DU-145 prostate) of 42.1 µM. The GI50 (EKVX NSCLC) was 5.35 µM, the TGI (EKVX NSCLC) was 23.7 µM and the GI50 (HCC-2998 colon) was 11.9 µM. For the same compound, the TGI (HCC-2998 colon) was 25.3 µM, the GI50 (HCT-116 colon) was 2.43 µM and the TGI (HCT-116 colon) was 12.7 µM. For the same compound, the GI50 (HCT-15 colon) was 2.58 µM, the TGI (HCT-15 colon) was 13.3 µM and the GI50 (HL-60(TB) leukemia) was 2.23 µM. The TGI (HL-60(TB) leukemia) was 6.49 µM, the GI50 (HOP-62 NSCLC) was 9.61 µM and the TGI (HOP-62 NSCLC) was 29.1 µM. The GI50 (HOP-92 NSCLC) was 1.33 µM, the TGI (HOP-92 NSCLC) was 9.75 µM and the GI50 (HS 578T breast) was 3.46 µM. It also gave a TGI (HS 578T breast) of 22.8 µM, a GI50 (HT29 colon) of 5.92 µM and a TGI (HT29 colon) of 20.3 µM. The GI50 (IGROV1 ovarian) was 3.43 µM, the TGI (IGROV1 ovarian) was 18.3 µM and the GI50 (K-562 leukemia) was 2.13 µM. For the same compound, the TGI (K-562 leukemia) was 10.2 µM, the GI50 (KM12 colon) was 3.69 µM and the TGI (KM12 colon) was 14.1 µM. It also gave a GI50 (LOX IMVI melanoma) of 2.75 µM, a TGI (LOX IMVI melanoma) of 11.4 µM and a GI50 (M14 melanoma) of 3.19 µM. It also gave a TGI (M14 melanoma) of 15.5 µM, a GI50 (MALME-3M melanoma) of 4.3 µM and a TGI (MALME-3M melanoma) of 16.7 µM. The GI50 (MCF7 breast) was 1.67 µM, the TGI (MCF7 breast) was 12.9 µM and the GI50 (MDA-MB-231 breast) was 4.76 µM. For the same compound, the TGI (MDA-MB-231 breast) was 18.6 µM, the GI50 (MDA-MB-435) was 2.04 µM and the TGI (MDA-MB-435) was 4.45 µM. The GI50 (MDA-MB-468 breast) was 2.43 µM, the TGI (MDA-MB-468 breast) was 14.1 µM and the GI50 (MOLT-4 leukemia) was 2.69 µM. It also gave a TGI (MOLT-4 leukemia) of 10.9 µM, a GI50 (NCI-H226 lung) of 6.43 µM and a TGI (NCI-H226 lung) of 22.2 µM. It also gave a GI50 (NCI-H23 lung) of 4.23 µM, a TGI (NCI-H23 lung) of 21.5 µM and a GI50 (NCI-H460 lung) of 3.24 µM. The TGI (NCI-H460 lung) was 11.5 µM, the GI50 (NCI-H522 lung) was 2.93 µM and the TGI (NCI-H522 lung) was 12.2 µM. The GI50 (OVCAR-3 ovarian) was 2.89 µM, the TGI (OVCAR-3 ovarian) was 9.48 µM and the GI50 (OVCAR-4 ovarian) was 3.7 µM. For the same compound, the TGI (OVCAR-4 ovarian) was 19.1 µM, the GI50 (OVCAR-5 ovarian) was 11.8 µM and the TGI (OVCAR-5 ovarian) was 24.4 µM. For the same compound, the GI50 (OVCAR-8 ovarian) was 6.86 µM, the TGI (OVCAR-8 ovarian) was 25.3 µM and the GI50 (PC-3 prostate) was 4.67 µM. The TGI (PC-3 prostate) was 20.5 µM, the GI50 (RPMI-8226 leukemia) was 2.13 µM and the TGI (RPMI-8226 leukemia) was 11.7 µM. For the same compound, the GI50 (RXF 393 renal) was 10.8 µM, the TGI (RXF 393 renal) was 24.4 µM and the GI50 (SF-268 CNS) was 3.26 µM. For the same compound, the TGI (SF-268 CNS) was 15.1 µM, the GI50 (SF-295 CNS) was 5.18 µM and the TGI (SF-295 CNS) was 21 µM. It also gave a GI50 (SF-539 CNS) of 2.27 µM, a TGI (SF-539 CNS) of 5.49 µM and a GI50 (SK-MEL-2 melanoma) of 3.68 µM. For the same compound, the TGI (SK-MEL-2 melanoma) was 15 µM, the GI50 (SK-MEL-28 melanoma) was 5.3 µM and the TGI (SK-MEL-28 melanoma) was 17.9 µM. For the same compound, the GI50 (SK-MEL-5 melanoma) was 3.17 µM, the TGI (SK-MEL-5 melanoma) was 11.4 µM and the GI50 (SK-OV-3 ovarian) was 13.1 µM. The TGI (SK-OV-3 ovarian) was 31.6 µM, the GI50 (SN12C renal) was 6.93 µM and the TGI (SN12C renal) was 20.3 µM. For the same compound, the GI50 (SNB-19 CNS) was 10.2 µM, the TGI (SNB-19 CNS) was 25.7 µM and the GI50 (SNB-75 CNS) was 3.23 µM. It also gave a TGI (SNB-75 CNS) of 21.2 µM, a GI50 (SR leukemia) of 2.1 µM and a TGI (SR leukemia) of 5.86 µM. For the same compound, the GI50 (SW-620 colon) was 3.59 µM, the TGI (SW-620 colon) was 14.5 µM and the GI50 (T-47D breast) was 4.73 µM. The TGI (T-47D breast) was 30 µM, the GI50 (TK-10 renal) was 16.2 µM and the TGI (TK-10 renal) was 35.9 µM. It also gave a GI50 (U251 CNS) of 3.5 µM, a TGI (U251 CNS) of 13.7 µM and a GI50 (UACC-257 melanoma) of 6.18 µM. For the same compound, the TGI (UACC-257 melanoma) was 21.2 µM, the GI50 (UACC-62 melanoma) was 2.41 µM and the TGI (UACC-62 melanoma) was 10.1 µM. The GI50 (UO-31 renal) was 2.45 µM and the TGI (UO-31 renal) was 18.6 µM.
